From US20130040853A1, “Context Specific Genetic Screen Platform to Aid in Gene Discovery and Target Validation” (Dana-Farber Cancer Institute Inc., priority 2010, published 2013) come the findings set out here.

This test deals with HMEL-BRAF^V600E melanocytes. Briefly: In vivo functional genetic screen and secondary validation: kinase-transduced HMEL cells implanted in nude mice. The arrangement: species or system human. An excerpt:
A ‘cancer-kinase’ library was constructed containing sequence-verified ORFs in a lentiviral vector for 110 of the 120 kinases reported to sustain somatic driver mutations in diverse human cancers. This library was pooled and introduced into a human HMEL-BRAF^V600E melanocyte model system engineered with BRAF^V600E and TERT as well as p53DD and CDK4-R24C to inactivate the […] pathways, respectively. The HMEL-BRAF^V600E melanocyte profile, while representing the most common clinically-definable genetic profile in human melanoma, is insufficient to drive efficient melanoma formation following orthotopic transplantation in the skin (penetrance of 10% and latency of 26 weeks). In contrast, 40% of HMEL-BRAF^V600E melanocytes transduced with the cancer kinase pools developed tumors with an average latency of 13 weeks (range 10-18 weeks).
In vivo functional genetic screens: Lentivirus were prepared by co-transfecting 293T cells with individual vector backbones and standard virus packaging systems for subsequent collection of viral supernatants. Viral supernatants were then pooled randomly to generate 8 pools of high-titer lentiviral stocks. HMEL cells were transduced with either GFP control lentivirus or each representative lentiviral pool in the presence of 8 ug/ml polybrene (Company). […]

For the substance “JNK2 WT: wild type MAPK9/JNK2 kinase ORF expressed in HMEL cells”, where the note is “WT or mutant kinase expressed individually”, the Tumorigenicity in vivo result was “YES”. Also, the tumor penetrance (secondary validation, kinase transduced individually into HMEL-BRAF^V600E melanocytes) came to 50%.
